From ChEMBL document CHEMBL5380795, “Design, Synthesis, and Bioactivity Investigation of Cyclic Lipopeptide Antibiotics Containing Eight to Nine Amino Acids” (J Med Chem, 2023)
Values after ≈ are worked out from the molar mass of the structure shown. Active and inactive are the calls of the source. The rule behind the calls is not given here. Bridge positions count the residues as written; N and C are the ends. Square brackets hold non-standard residues; d marks the D form. Peptide text beside a SMILES is read from it. * marks the point of attachment. Decanoyl(3R-OH) = CCCCCCC[C@@H](O)CC(=O)*; Decanoyl = CCCCCCCCCC(=O)*; dDab = NCC[C@@H](N)C(=O)O; Dab = NCC[C@H](N)C(=O)O

What was measured:
Pseudomonas aeruginosa [1] = test: Antibacterial activity against Pseudomonas aeruginosa FADDI-PA060 incubated for 18 hrs by broth microdilution method; assay type: functional
Pseudomonas aeruginosa [2] = test: Antibacterial activity against Pseudomonas aeruginosa FADDI-PA090 incubated for 18 hrs by broth microdilution method; assay type: functional
Pseudomonas aeruginosa [3] = test: Antibacterial activity against Pseudomonas aeruginosa ATCC 27853 incubated for 18 hrs by broth microdilution method; assay type: functional
Pseudomonas aeruginosa [4] = test: Antibacterial activity against Pseudomonas aeruginosa FADDI-PA025 incubated for 18 hrs by broth microdilution method; assay type: functional
Pseudomonas aeruginosa [5] = test: Antibacterial activity against Pseudomonas aeruginosa FADDI-PA070 incubated for 18 hrs by broth microdilution method; assay type: functional
[6] = tested on: Staphylococcus epidermidis; test: Antibacterial activity against methicillin resistant Staphylococcus epidermidis clinical isolate 19-6 assessed as inhibition of bacterial growth incubated for 18 to 24 hrs by broth microdilution method; assay type: functional; details: time 18-24 hrs
Pseudomonas aeruginosa [7] = test: Antibacterial activity against carbapenem resistant Pseudomonas aeruginosa clinical isolate 17-1 assessed as inhibition of bacterial growth incubated for 18 to 24 hrs by broth microdilution method; assay type: functional; details: time 18-24 hrs
Pseudomonas aeruginosa [8] = test: Antibacterial activity against Pseudomonas aeruginosa ATCC 27853 assessed as inhibition of bacterial growth incubated for 18 to 24 hrs by broth microdilution method; assay type: functional; details: time 18-24 hrs
Staphylococcus aureus [9] = test: Antibacterial activity against Staphylococcus aureus ATCC 29213 assessed as inhibition of bacterial growth incubated for 18 to 24 hrs by broth microdilution method; assay type: functional; details: time 18-24 hrs
Klebsiella pneumoniae [10] = test: Antibacterial activity against carbapenem resistant Klebsiella pneumoniae clinical isolate 19-15 assessed as inhibition of bacterial growth incubated for 18 to 24 hrs by broth microdilution method; assay type: functional; details: time 18-24 hrs
Pseudomonas aeruginosa [11] = test: Antibacterial activity against Pseudomonas aeruginosa clinical isolate 19-1 assessed as inhibition of bacterial growth incubated for 18 to 24 hrs by broth microdilution method; assay type: functional; details: time 18-24 hrs
Cell membrane = test: Induction of outer membrane permeabilization in Escherichia coli ATCC 25922 assessed as increase in fluorescence at 1 to 16 ug/ml measured after 3 mins by NPN-dye based assay; assay type: subcellular; details: dose 1-16 µg/ml
Klebsiella pneumoniae [12] = test: Antibacterial activity against carbapenem resistant Klebsiella pneumoniae clinical isolate 19-17 assessed as inhibition of bacterial growth incubated for 18 to 24 hrs by broth microdilution method; assay type: functional; details: time 18-24 hrs
[13] = tested on: Staphylococcus epidermidis; test: Antibacterial activity against methicillin resistant Staphylococcus epidermidis clinical isolate 19-5 assessed as inhibition of bacterial growth incubated for 18 to 24 hrs by broth microdilution method; assay type: functional; details: time 18-24 hrs
Escherichia coli [14] = test: Antibacterial activity against Escherichia coli ATCC BAA-2523 assessed as inhibition of bacterial growth incubated for 18 to 24 hrs by broth microdilution method; assay type: functional; details: time 18-24 hrs
Escherichia coli [15] = test: Antibacterial activity against Escherichia coli ATCC 25922 assessed as inhibition of bacterial growth incubated for 18 to 24 hrs by broth microdilution method; assay type: functional; details: time 18-24 hrs
Escherichia coli [16] = test: Antibacterial activity against KPC producing Escherichia coli ATCC BAA-2340 assessed as inhibition of bacterial growth incubated for 18 to 24 hrs by broth microdilution method; assay type: functional; details: time 18-24 hrs
Escherichia coli [17] = test: Antibacterial activity against Escherichia coli NCTC 13353 assessed as inhibition of bacterial growth incubated for 18 to 24 hrs by broth microdilution method; assay type: functional; details: time 18-24 hrs
Acinetobacter baumannii [18] = test: Antibacterial activity against oxacillinase-27 producing Acinetobacter baumannii NCTC 13304 assessed as inhibition of bacterial growth incubated for 18 to 24 hrs by broth microdilution method; assay type: functional; details: time 18-24 hrs
Escherichia coli [19] = test: Antibacterial activity against Escherichia coli clinical isolate 19-2 assessed as inhibition of bacterial growth incubated for 18 to 24 hrs by broth microdilution method; assay type: functional; details: time 18-24 hrs
Pseudomonas aeruginosa [20] = test: Antibacterial activity against Pseudomonas aeruginosa; assay type: functional
[21] = tested on: Staphylococcus epidermidis; test: Antibacterial activity against Staphylococcus epidermidis; assay type: functional
Klebsiella pneumoniae [22] = test: Antibacterial activity against KPC producing Klebsiella pneumoniae ATCC BAA-1705 assessed as inhibition of bacterial growth incubated for 18 to 24 hrs by broth microdilution method; assay type: functional; details: time 18-24 hrs
Acinetobacter baumannii [23] = test: Antibacterial activity against Acinetobacter baumannii; assay type: functional
Escherichia coli [24] = test: Antibacterial activity against Escherichia coli; assay type: functional
[25] = Cytotoxicity against human HK-2 cells assessed as inhibition of cell growth incubated for 72 hrs by CCK-8 assay; assay type: toxicity, cell-based
Staphylococcus aureus [26] = test: Antibacterial activity against Staphylococcus aureus; assay type: functional
Acinetobacter baumannii [27] = test: Antibacterial activity against carbapenem resistant Acinetobacter baumannii clinical isolate 19-8 assessed as inhibition of bacterial growth incubated for 18 to 24 hrs by broth microdilution method; assay type: functional; details: time 18-24 hrs
Klebsiella pneumoniae [28] = test: Antibacterial activity against Klebsiella pneumoniae; assay type: functional
[29] = Plasma protein binding in human at 2 uM incubated for 6 hrs by equilibrium dialysis based LC-MS/MS analysis; assay type: ADME, cell-free; details: read-out: PPB (converted)
Candida albicans = test: Antifungal activity against Candida albicans; assay type: functional
Pseudomonas aeruginosa [30] = test: Antibacterial activity against carbapenem resistant Pseudomonas aeruginosa clinical isolate 19-3 assessed as inhibition of bacterial growth incubated for 18 to 24 hrs by broth microdilution method; assay type: functional; details: time 18-24 hrs
Staphylococcus aureus [31] = test: Antibacterial activity against methicillin resistant Staphylococcus aureus ATCC 33591 assessed as inhibition of bacterial growth incubated for 18 to 24 hrs by broth microdilution method; assay type: functional; details: time 18-24 hrs
[32] = Selectivity index, ratio of IC50 for cytotoxicity against human HK-2 cells to MIC for antibacterial activity against Escherichia coli ATCC BAA-2523; assay type: toxicity, cell-based

Row | Structure (SMILES) | MIC [6] [µg/mL] | MIC (Pseudomonas aeruginosa [7]) [µg/mL] | MIC (Pseudomonas aeruginosa [8]) [µg/mL] | MIC (Staphylococcus aureus [9]) [µg/mL] | MIC (Klebsiella pneumoniae [10]) [µg/mL] | MIC (Pseudomonas aeruginosa [11]) [µg/mL] | MIC (Klebsiella pneumoniae [12]) [µg/mL] | MIC [13] [µg/mL] | MIC (Escherichia coli [14]) [µg/mL] | MIC (Escherichia coli [16]) [µg/mL] | MIC (Escherichia coli [17]) [µg/mL] | MIC (Acinetobacter baumannii [18]) [µg/mL] | MIC (Escherichia coli [19]) [µg/mL] | MIC (Pseudomonas aeruginosa [20]) [µg/mL] | MIC [21] [µg/mL] | MIC (Klebsiella pneumoniae [22]) [µg/mL] | MIC (Acinetobacter baumannii [23]) [µg/mL] | MIC (Escherichia coli [24]) [µg/mL] | IC50 at 72 h [25] [µg/mL] | MIC (Staphylococcus aureus [26]) [µg/mL] | further results
1 | CCCCCCCCCC(=O)N[C@H](CCN)C(=O)N[C@H]1CCNC(=O)[C@H]([C@@H](C)O)NC(=O)[C@H](CCN)NC(=O)[C@H](CCN)NC(=O)[C@H](CC(C)C)NC(=O)[C@@H](Cc2ccccc2)NC(=O)[C@H](CCN)NC1=O (Decanoyl-[dDab][Dab][Dab][dF]L[Dab][Dab]T; lactam 2-C) |  |  |  |  |  |  |  |  |  |  |  |  |  |  |  |  |  |  |  |  | MIC (Pseudomonas aeruginosa [1]): 0.5 µg/mL (≈ 0.492 µM); MIC (Pseudomonas aeruginosa [2]): 0.5 µg/mL (≈ 0.492 µM); MIC (Pseudomonas aeruginosa [3]): 0.5 µg/mL (≈ 0.492 µM); MIC (Pseudomonas aeruginosa [4]): 0.5 µg/mL (≈ 0.492 µM); MIC (Pseudomonas aeruginosa [5]): 0.5 µg/mL (≈ 0.492 µM)
2 | C[C@@H](O)[C@H]1C(=O)N2C(C(=O)O)=C(S[C@@H]3CN[C@H](C(=O)N(C)C)C3)[C@H](C)[C@H]12 [MEROPENEM] | 2 (≈ 5.22 µM) | 32 (≈ 83.4 µM) | 1 (≈ 2.61 µM) | 0.125 (≈ 0.326 µM) | 64 (≈ 167 µM) | 0.5 (≈ 1.3 µM) | > 64 | 2 (≈ 5.22 µM) | 0.25 (≈ 0.652 µM) | 4 (≈ 10.4 µM) | < 0.06 | 64 (≈ 167 µM) | ≤ 0.06 |  |  |  |  |  |  |  | Activity (Cell membrane): inactive; MIC (Escherichia coli [15]): 0.06 µg/mL (≈ 0.156 µM)
3 | CCCCCCC[C@@H](O)CC(=O)N[C@H](CCN)C(=O)N[C@H]1CCNC(=O)[C@H](CC(C)C)NC(=O)[C@H](CCN)NC(=O)[C@H](CCN)NC(=O)[C@H](CC(C)C)NC(=O)[C@@H](CC(C)C)NC(=O)[C@H](CCN)NC1=O | 16 (≈ 15.8 µM) | 2 (≈ 1.98 µM) | 1 (≈ 0.99 µM) | > 64 | 16 (≈ 15.8 µM) | 2 (≈ 1.98 µM) | 16 (≈ 15.8 µM) | 2 (≈ 1.98 µM) | 16 (≈ 15.8 µM) | 8 (≈ 7.92 µM) | 16 (≈ 15.8 µM) | 8 (≈ 7.92 µM) | 16 (≈ 15.8 µM) | 0.4 (≈ 0.396 µM) | 0.6 (≈ 0.594 µM) | 16 (≈ 15.8 µM) | 4 (≈ 3.96 µM) | 0.1 (≈ 0.099 µM) | 60.7 (≈ 60.1 µM) | 3.1 (≈ 3.07 µM) | MIC (Acinetobacter baumannii [27]): 4 µg/mL (≈ 3.96 µM); MIC (Klebsiella pneumoniae [28]): 0.78 µg/mL (≈ 0.772 µM); fraction unbound at 6 h, 2 µM [29]: 0.0216; MIC (Candida albicans): 4.7 µg/mL (≈ 4.65 µM); MIC (Pseudomonas aeruginosa [30]): 4 µg/mL (≈ 3.96 µM); MIC (Staphylococcus aureus [31]): > 64 µg/mL; selectivity ratio [32]: 3.8
4 | CCCCCCC[C@@H](O)CC(=O)N[C@H](CCN)C(=O)N[C@H]1CCNC(=O)[C@H](CC(C)C)NC(=O)[C@H](CCN)NC(=O)[C@H](CCN)NC(=O)[C@H](CC(C)C)NC(=O)[C@@H](Cc2ccccc2)NC(=O)[C@H](CCN)NC1=O ({Decanoyl(3R-OH)}-[dDab][Dab][Dab][dF]L[Dab][Dab]L; lactam 2-C) | 4 (≈ 3.83 µM) | 2 (≈ 1.92 µM) | 2 (≈ 1.92 µM) | 16 (≈ 15.3 µM) | 8 (≈ 7.66 µM) | 2 (≈ 1.92 µM) | 8 (≈ 7.66 µM) | 2 (≈ 1.92 µM) | 8 (≈ 7.66 µM) | 2 (≈ 1.92 µM) | 8 (≈ 7.66 µM) | 8 (≈ 7.66 µM) | 16 (≈ 15.3 µM) | 0.4 (≈ 0.383 µM) | 0.6 (≈ 0.575 µM) | 8 (≈ 7.66 µM) | 4 (≈ 3.83 µM) | 0.1 (≈ 0.0958 µM) | 14.2 (≈ 13.6 µM) | 3.1 (≈ 2.97 µM) | MIC (Acinetobacter baumannii [27]): 4 µg/mL (≈ 3.83 µM); MIC (Klebsiella pneumoniae [28]): 0.78 µg/mL (≈ 0.747 µM); fraction unbound at 6 h, 2 µM [29]: 0.0805; MIC (Candida albicans): 4.7 µg/mL (≈ 4.5 µM); MIC (Pseudomonas aeruginosa [30]): 4 µg/mL (≈ 3.83 µM); MIC (Staphylococcus aureus [31]): 16 µg/mL (≈ 15.3 µM); selectivity ratio [32]: 1.8
